Here are results for seven compounds from PubChem BioAssay (NCI).

By GI50 is commonly meant the concentration at which growth is held to half of that of the control. By TGI is commonly meant the concentration at which net growth stops. A lower TGI goes with more potent growth arrest.

Among the test systems are KM12 colon; K-562 leukemia; T-47D breast; ACHN renal; A549 NSCLC; PC-3 prostate; MALME-3M melanoma; HT29 colon; OVCAR-5 ovarian; HOP-92 NSCLC.
Holding throughout (experiment): DTP human tumour cell line panel, 48 h

“And” between values parts separate entries of the source, which are not always exact repeats. Identical values can stand only once.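 Results reflect a 48-hour exposure of cells in 96-well plates to compound at five concentrations. Here, GI50 denotes the concentration required for 50% inhibition of growth. Definition used: TGI = concentration required for complete inhibition of growth.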

With `O=C1NC(=O)C(c2c[nH]c3ccccc23)=C1c1ccccc1`, the GI50 with KM12 colon, in the experiment with K-562 leukemia, in the experiment on T-47D breast, in the experiment on ACHN renal, in the experiment on A549 NSCLC and with PC-3 prostate was > 25 µM throughout. Besides, the GI50 in the experiment on MALME-3M melanoma, with HT29 colon, with OVCAR-5 ovarian and in the experiment on HOP-92 NSCLC was > 25 µM throughout. Besides, the TGI in the experiment with KM12 colon, with K-562 leukemia, in the experiment on T-47D breast, in the experiment with ACHN renal, with A549 NSCLC and with PC-3 prostate was > 25 µM in each case. Moreover, the TGI in the experiment on MALME-3M melanoma, in the experiment on HT29 colon, in the experiment on OVCAR-5 ovarian and in the experiment with HOP-92 NSCLC was > 25 µM each time.
As for `COC(=O)[C@]12CC[C@@H](C)[C@H](C)[C@@H]1C1=CC[C@@H]3[C@@]4(C)CC(=O)[C@H](O)[C@@](C)(CO)[C@@H]4C(=O)C[C@@]3(C)[C@]1(C)CC2`, the GI50 is 10.8 µM in the experiment on KM12 colon; 11.2 µM in the experiment with K-562 leukemia; 2.44 µM with T-47D breast; 12.9 µM in the experiment with ACHN renal; 15.8 µM in the experiment with A549 NSCLC; 0.931 µM in the experiment with PC-3 prostate. In addition, the GI50 with MALME-3M melanoma was 4.52 µM; with HT29 colon, 14.5 µM; in the experiment with OVCAR-5 ovarian, 20.8 µM; with HOP-92 NSCLC it was 15.3 µM. The TGI in the experiment with KM12 colon stood at 23.6 µM; with K-562 leukemia it was 40.7 µM; with T-47D breast it was 26.4 µM; in the experiment with ACHN renal, 28.3 µM; with A549 NSCLC, 32.9 µM; with PC-3 prostate, 15 µM. For the same compound, the TGI with MALME-3M melanoma was 22 µM; with HT29 colon, 30.4 µM; with OVCAR-5 ovarian it was 37.6 µM; in the experiment on HOP-92 NSCLC, 30.1 µM.
In the case of `N[C@@H](CSSC[C@H](N)C(=O)N1CCn2cc(-c3ccccc3)nc2[C@@H]1CC1CCCCC1)C(=O)N1CCn2cc(-c3ccccc3)nc2[C@@H]1CC1CCCCC1`, the GI50 in the experiment on KM12 colon was 0.91 µM; in the experiment with K-562 leukemia, 1.48 µM; in the experiment on T-47D breast, 0.543 µM; in the experiment with ACHN renal, 1.77 µM; in the experiment on A549 NSCLC, 1.37 µM; in the experiment on PC-3 prostate, 2.91 µM. Besides, the GI50 was 1.5 µM in the experiment on MALME-3M melanoma, 1.63 µM in the experiment with HT29 colon, 2.23 µM with OVCAR-5 ovarian and 2.45 µM in the experiment with HOP-92 NSCLC. The TGI in the experiment on KM12 colon was 2.47 µM; in the experiment with K-562 leukemia, > 100 µM; in the experiment on T-47D breast, 2.02 µM; in the experiment on ACHN renal, 3.81 µM; with A549 NSCLC it was 3.05 µM; in the experiment with PC-3 prostate, 9.62 µM. Further, the TGI in the experiment with MALME-3M melanoma worked out at 2.99 µM; with HT29 colon, 3.42 µM; in the experiment on OVCAR-5 ovarian, 6.39 µM; with HOP-92 NSCLC, 5.8 µM.
Take `Cc1cc2c(cc1Cl)N1C(=O)NS(=O)(=O)N=C1NS2(=O)=O`: the GI50 with KM12 colon, in the experiment on K-562 leukemia, in the experiment with T-47D breast, in the experiment on ACHN renal, with A549 NSCLC and in the experiment on PC-3 prostate was > 100 µM in each case. The GI50 in the experiment on MALME-3M melanoma, in the experiment with HT29 colon, in the experiment with OVCAR-5 ovarian and in the experiment with HOP-92 NSCLC was > 100 µM throughout. The TGI with KM12 colon, in the experiment on K-562 leukemia, in the experiment on T-47D breast, with ACHN renal, with A549 NSCLC and in the experiment on PC-3 prostate was > 100 µM throughout. Further, the TGI in the experiment on MALME-3M melanoma, in the experiment on HT29 colon, in the experiment on OVCAR-5 ovarian and in the experiment with HOP-92 NSCLC was > 100 µM each time.
For the compound `O=C1/C(=C/c2ccccc2[N+](=O)[O-])COc2ccc(O)c(O)c21`, the GI50 is 1.55 µM with KM12 colon; 0.428 µM in the experiment on K-562 leukemia; 0.918 µM in the experiment with T-47D breast; 0.278 µM in the experiment on ACHN renal; 2.61 µM in the experiment on A549 NSCLC; 0.814 µM with PC-3 prostate. Further, the GI50 with MALME-3M melanoma was 0.866 µM; in the experiment on HT29 colon, 0.529 µM; in the experiment with OVCAR-5 ovarian it was 1.69 µM; in the experiment with HOP-92 NSCLC it was 1.1 µM. Moreover, the TGI in the experiment on KM12 colon is 3.72 µM; in the experiment with K-562 leukemia, > 100 µM; with T-47D breast, 4.72 µM; with ACHN renal, 0.863 µM; in the experiment on A549 NSCLC, 12.4 µM; in the experiment with PC-3 prostate, 4.89 µM. In addition, the TGI with MALME-3M melanoma was found to be 3 µM; in the experiment on HT29 colon, 3.35 µM; with OVCAR-5 ovarian it was 3.66 µM; in the experiment on HOP-92 NSCLC it was 2.9 µM.
In the case of `CCc1ccc([O-])c(C=NCCCN(C)CCCN=Cc2cc(C)ccc2[O-])c1.[Co+3].[N-]=[N+]=[N-]`, the GI50 in the experiment with KM12 colon was 50 mg/L and > 150 mg/L; in the experiment on K-562 leukemia it was 5 mg/L and 74 mg/L; in the experiment on T-47D breast it was 40 mg/L; in the experiment on ACHN renal it was 50 mg/L; in the experiment on A549 NSCLC, 50 mg/L and 106 mg/L; in the experiment with PC-3 prostate, 29.5 mg/L. The GI50 was 50 mg/L and 82.6 mg/L with MALME-3M melanoma; 50 mg/L and > 150 mg/L in the experiment with HT29 colon; 50 mg/L and 137 mg/L in the experiment on OVCAR-5 ovarian; 15.9 mg/L and 22 mg/L with HOP-92 NSCLC. Besides, the TGI with KM12 colon was 50 mg/L and > 150 mg/L; in the experiment on T-47D breast, 50 mg/L; in the experiment on ACHN renal it was 50 mg/L; in the experiment with A549 NSCLC, 50 mg/L and > 150 mg/L; with PC-3 prostate it was 50 mg/L; with MALME-3M melanoma, 50 mg/L and > 150 mg/L. In addition, the TGI in the experiment on HT29 colon was 50 mg/L and > 150 mg/L; in the experiment with OVCAR-5 ovarian, 50 mg/L and > 150 mg/L; in the experiment with HOP-92 NSCLC, 50 mg/L and 54.7 mg/L.
`Cc1c(O)c(Br)c(C)c(O)c1Br` (tested in a mixture with another compound): the TGI is 41.2 µM in the experiment with KM12 colon; 11.6 µM with K-562 leukemia; 5.54 µM in the experiment with T-47D breast; 3.05 µM in the experiment on ACHN renal; 60 µM in the experiment on A549 NSCLC; 4.23 µM in the experiment on PC-3 prostate. In addition, the TGI in the experiment with MALME-3M melanoma came out at 3.55 µM; in the experiment on HT29 colon it was 4.78 µM; in the experiment with OVCAR-5 ovarian it was 34.9 µM; in the experiment with HOP-92 NSCLC, 3.03 µM.
